Measured values: patent US11298422B2, “Treating tumors with TTFields and an aurora kinase inhibitor” (Novocure Limited, priority 2018, dated 2022)

Experiments:
[1] = system: primary glioblastoma cell line HT12347; assay: Normalized cell count, primary glioblastoma cells; format: cell-based; details: primary glioblastoma cell-lines, compared to each treatment alone; Mann-Whitney-U-test, p<0.01
Experimental: In addition to U87-MG cells, primary tumor-cell lines were established from glioblastoma tissue taken intraoperatively. TTFields (1.6 V/cm RMS, 200 kHz) were applied for 72 hours using the InovitroTM system. AZD1152 was added to the media in concentrations of up to 100 nmol/l. Cell counts, cell cycle and clonogenic potential were determined at the end of treatment. Primary tumor-cell-lines were analyzed. In addition, MLN8237, an Aurora A kinase inhibitor, was tested in concentrations up to 50 nmol/l for the treatment of U87-MG and primary tumor-cell lines to further establish Aurora kinase inhibition as a target for combination therapy with TTFields. […] FIGS. 5A and 5B show the normalized cell counts after treatment with TTFields and AZD1152, alone and in combination, on U87-MG (FIG. 5A) and primary glioblastoma cell line HT12347 (FIG. 5B) at the indicated AZD1152 concentration and […] frequency. The exemplary box plots show the normalized cell count after treatment with AZD1152 alone, TTFields alone, and combination of AZD1152 and TTFields. “***” marks significant differences where p<0.001. […] FIGS. 8A-8B show the normalized cell counts after treatment with TTFields and MLN8237, alone and in combination, on U87-MG (FIG. 8A) and primary glioblastoma cell line HT12347 (FIG. 8B). […]

[2] = system: primary glioblastoma cell line HT12347; assay: Light microscopy, primary glioblastoma cells; format: cell-based; details: HT12347, TTFields and MLN8237 combination vs control and each alone (FIGS. 10A-10D)
Experimental: Cells were treated with control, AZD1152, TTFields, or a combination of both. […] FIGS. 10A-10D show exemplary light microscopy images of primary glioblastoma cells HT12347 after the following treatment: 10A: control; 10B: after […] treatment; 10C: after treatment with MLN8237 alone; 10D: after treatment with TTFields and MLN8237.

[3] = system: glioblastoma cell line HT 12347; assay: PI (propium iodide) staining of DNA content, primary glioblastoma cells; format: cell-based; details: HT 12347, TTFields combined with MLN8237 (FIGS. 9A-9E)
Source text: FIGS. 9A-9E show exemplary PI (propium iodide) staining results showing DNA content after treatment with TTFields alone, […] alone, and in combination in glioblastoma cell line HT 12347 with corresponding cell cycle histograms. FIG. 9A is a summary, with 2n in light gray, 4n in dark gray, and r>4n in black; FIG. 9B is a cell cycle histogram for the control; FIG. 9C is a cell cycle histogram for […] treatment alone; FIG. 9D is a cell cycle histogram for MLN8237 alone; and FIG. 9E is a cell cycle histogram for TTFields combined with MLN8237.

U87-MG = assay: Normalized cell count, U87-MG (additional study); format: cell-based, human; details: compared to each treatment alone, Mann-Whitney-U-test, p<0.01
Experimental: In addition to U87-MG cells, primary tumor-cell lines were established from glioblastoma tissue taken intraoperatively. TTFields (1.6 V/cm RMS, 200 kHz) were applied for 72 hours using the Inovitro™ system. AZD1152 was added to the media in concentrations of up to 100 nmol/l. Cell counts, cell cycle and clonogenic potential were determined at the end of treatment. Primary tumor-cell-lines were analyzed. In addition, MLN8237, an Aurora A kinase inhibitor, was tested in concentrations up to 50 nmol/l for the treatment of U87-MG and primary tumor-cell lines to further establish Aurora kinase inhibition as a target for combination therapy with TTFields. […] FIGS. 8A-8B show the normalized cell counts after treatment with TTFields and MLN8237, alone and in combination, on U87-MG (FIG. 8A) and primary glioblastoma cell line HT12347 (FIG. 8B). The exemplary box plots show the normalized cell count after treatment with TTFields alone, MLN8237 alone, and combination of MLN8237 and TTFields in U87 cells ([…]), and in HT12347 glioblastoma cells (FIG. 8B). The greatest reduction in the percentage of living cells in relation to the control is shown with the combination of TTFields and MLN8237.

In the case of `COc1cc(Nc2ncc3c(n2)-c2ccc(Cl)cc2C(c2c(F)cccc2OC)=NC3)ccc1C(=O)O` [MLN8237, Alisertib], the “cell numbers after combined treatment of MLN8237 and TTFields” value [1] is reported as “significant decrease of cell numbers”, the “number of cells in light microscopy images” value [2] is reported as “lowest number of cells” and the “multinuclear and polyploid cells (PI staining, DNA content)” value [3] is reported as “higher number of multinuclear and polyploid cells”. The “cell numbers after combined treatment of MLN8237 and TTFields” value (U87-MG) was “significant decrease of cell numbers”.
